Test results from US20180369244A1, “BTK Inhibitors to Treat Solid Tumors Through Modulation of the Tumor Microenvironment” (Acerta Pharma B.V., priority 2014, published 2018).

Columns and labels:
primary CLL cells = assay: Rituximab ADCC chromium release assay; assay type: cell-based, human; details: 1 μM; primary CLL samples
Description: Cell culture conditions were as follows. Cell lines Raji and DHL-4 were maintained in […] supplemented with fetal bovine serum, L-glutamine, 2-mercaptoethanol and penicillin-streptomycin at 37° C. in a humidified incubator. The HER18 cells were maintained in DEM supplemented with fetal bovine serum, penicillin-streptomycin and. Prior to assay, HER18 cells were harvested using trypsin-EDTA, washed with phosphate-buffered saline (PBS) containing 5% serum and viable cells were counted. For culture of primary target cells, peripheral blood from CLL patients was subject to density centrifugation to obtain peripheral blood mononuclear cells (PBMC). Cell preparations were washed and then subject to positive selection of CD5+CD19^+ CLL cells using magnetic beads (MACS, Miltenyi Biotech). Cell preparations were used fresh after selection. NK cells from CLL patients and healthy volunteers were enriched from peripheral blood collected in sodium citrate anti-coagulant tubes and then subject to density centrifugation. Removal of non NK cells was performed using negative selection by MACS separation. […]
ADCC assays were performed as follows. […] The effect of NK cell natural cytotoxicity was assessed in wells containing no rituximab. […] Supernatants were harvested and ^51Cr release was measured by liquid scintillation counting. […]

ID8 ovarian cancer = assay: ID8 syngeneic orthotropic ovarian cancer murine model; assay type: in vivo, mice; details: 15 mg/kg/BID oral
Excerpt: Human ovarian cancer models, including the ID8 syngeneic orthotropic ovarian cancer model and other animal models, are described in Fong and Kakar, J. Ovarian Res. 2009, 2, 12; Greenaway, et al., Gynecol. Oncol. 2008, 108, 385-94; Urzua et al., Tumour Biol. 2005, 26, 236-44; Janat-Amsbury, et al., Anticancer Res. 2006, 26, 3223-28; Janat-Amsbury, et al., Anticancer Res. 2006, 26, 2785-89. […] The results of the study are shown in FIG. 5, FIG. 6, FIG. 7, FIG. 8, FIG. 9, FIG. 10, FIG. 11, and FIG. 12.

[1] = Cardiovascular function study in telemeterized beagle dogs; assay type: in vivo; details: single doses through 30 mg/kg
Excerpt: (§1) Formula (II) was well tolerated in standard in vivo Good Laboratory Practices (GLP) studies of pharmacologic safety.

NSCLC (KrasLA2) = assay: KrasLA2 genetic NSCLC model; assay type: in vivo, mice
Excerpt: The model is designed to have sporadic expression in single cells of G12D mutant Kras off its own promoter triggered by spontaneous intrachromosomal recombination. Johnson, et al. Nature 2001, 410, 1111-16. While the mutant Kras protein is expressed in a few cells in all tissues, tumor development is seen only in the lung at high penetrance.

NK cells = assay: Antibody-dependent NK cell IFN-γ secretion (ELISA); assay type: cell-based, human; details: 1 μM
Description: The HER18 cells were maintained in DEM supplemented with fetal bovine serum, penicillin-streptomycin and. Prior to assay, HER18 cells were harvested using trypsin-EDTA, washed with phosphate-buffered saline (PBS) containing 5% serum and viable cells were counted. […] NK cells from CLL patients and healthy volunteers were enriched from peripheral blood collected in sodium citrate anti-coagulant tubes and then subject to density centrifugation. Removal of non NK cells was performed using negative selection by MACS separation. Freshly isolated NK cells were washed three times, enumerated, and then used immediately for ADCC assays.
Cytokine secretion was determined as follows. Rituximab and trastuzumab-dependent NK-cell mediated degranulation and cytokine release were assessed using lymphoma and HER2+ breast cancer cell lines (DHL-4 and HER18, respectively). […] NK cells from healthy donors were enriched as described above and then added to the target cells and incubated for 4 hours at 37° C. Triplicate cultures were performed on NK cells from donors. After incubation, supernatants were harvested, centrifuged briefly, and then analyzed for interferon-γ using an enzyme-linked immunosorbent assay (ELISA).

[2] = system: human platelet-mediated thrombosis; details: mouse, in vivo
Description: Injury to the vessel wall of arterioles ([…] diameter) was performed using a pulsed nitrogen dye laser (440 nm, Photonic Instruments) applied through a 20× water-immersion Olympus objective (LUMPlanF1, 0.5 numerical aperature (NA)) of a Zeiss Axiotech vario microscope. […] The extent of thrombus formation was assessed for 2 minutes after injury and the area (μm^2) of coverage determined (Image IQ, Andor Technology).
The BTK inhibitor-treated human platelets were fluorescently labeled and infused continuously through a catheter inserted into the femoral artery.

[3] = system: GPVI platelet aggregation; assay: GPVI platelet aggregation (convulxin-induced); assay type: cell-based, human
Description: GPVI platelet aggregation was measured for Formula (II) and Formula (X) (ibrutinib). Blood was obtained from untreated humans, and platelets were purified from […] by centrifugation. Cells were resuspended to a final concentration of […] in buffer containing 145 mmol/L NaCl, 10 mmol/L HEPES, 0.5 mmol/L Na2HPO4, 5 mmol/L KCl, 2 mmol/L MgCl2, 1 mmol/L CaCl2, and 0.1% glucose, at pH 7.4. Stock solutions of Convulxin (CVX) GPVI were prepared on the day of experimentation and added to platelet suspensions 5 minutes (37° C., 1200 rpm) before the induction of aggregation. Aggregation was assessed with a Chronolog Lumi-Aggregometer (model 540 VS; Chronolog, Havertown, Pa.) and permitted to proceed for 6 minutes after the addition of agonist. The results are reported as maximum percent change in light transmittance from baseline with platelet buffer used as a reference.
In FIG. 23, the results of CVX-induced (250 ng/mL) human platelet aggregation results before and 15 minutes after administration of the BTK inhibitors to 6 healthy individuals are shown.

CD4+ T cells = assay: Th17 and Treg development from CD4+ T cells; assay type: cell-based
Description: Enriched CD4^+ T cells are plated on 24-well culture dishes that have been precoated 2 hr with 250 μL anti-TCRβ (0.5 μg/mL) plus anti-CD28 (5 μg/mL) at 37° C. in PBS. The cells are then supplemented with media containing BTK inhibitors along with the skewing cytokines as indicated in the following. The Th17 and Treg cultures are grown for 4 days before analysis. The cells are maintained for an additional 3 days with skewing cytokines (Th17; 20 ng/mL IL-6, 0.5 ng/mL TGF-β, 5 μg/mL IL-4, 5 μg/mL IFN-γ and Treg; 0.5 ng/mL TGF-β, 5 μg/mL IL-4, 5 μg/mL IFN-γ) and are supplemented with IL2 as a growth factor.

[4] = GLP safety pharmacology in rats (functional observation battery, respiratory function); assay type: in vivo; details: doses through 300 mg/kg
Excerpt: as §1

Compound: CC#CC(=O)N1CCC[C@H]1c1nc(-c2ccc(C(=O)Nc3ccccn3)cc2)c2c(N)nccn12 [Formula (II), (S)-4-(8-amino-3-(1-(but-2-ynoyl)pyrrolidin-2-yl)imidazo[1,5-a]pyrazin-1-yl)-N-(pyridin-2-yl)benzamide]
- ex vivo NK cell activity against autologous tumor cells (primary CLL cells): not inhibited
- ID8 ovarian cancer growth (ID8 ovarian cancer): impairs ID8 ovarian cancer growth
- immunosuppressive B cells in tumor-bearing mice (ID8 ovarian cancer): significant reduction in immunosuppressive B cells
- tumor associated Tregs and CD8+ T cells (ID8 ovarian cancer): significant reduction in immunosuppressive tumor associated Tregs and an increase in CD8^+ T cells
- body temperature, cardiovascular, ECG (including QT interval) parameters [1]: no meaningful changes
- number of tumors (NSCLC (KrasLA2); 15 mg/kg): fewer overall tumors
- tumor volumes versus vehicle (NSCLC (KrasLA2); 15 mg/kg): significant decrease in tumor volumes
- immunosuppressive tumor associated TAMs (NSCLC (KrasLA2); FIG. 62): significant reduction
- immunosuppressive tumor associated MDSCs (NSCLC (KrasLA2); FIG. 63): significant reduction
- immunosuppressive tumor associated Tregs (NSCLC (KrasLA2); FIG. 64): significant reduction
- IFN-γ or NK cell degranulation (NK cells): did not inhibit
- inhibition of trastuzumab-stimulated NK cell cytokine release (NK cells; HER18 target cells): no inhibitory effect
- effect on thrombus formation [2]: does not interfere with thrombus formation
- GPVI platelet aggregation ([3]; FIG. 22 and FIG. 23): does not
- IC50 ([3]; Homo sapiens, Platelet, FIG. 22): 1.15 µM
- Th17 and Treg development (CD4+ T cells): no adverse effects on Th17 and Treg development
- functional observation battery: neurobehavioral effects, body temperature [4]: no adverse effects
- respiratory function [4]: no treatment-related adverse effects
